Laboratory results reported in US5180742A, “Quinone derivatives, their production and use” (Takeda Chemical Industries, Ltd., priority 1984, dated 1993).

What was measured:
[1] = test system: Immunoglobulin-G1 mediated bronchoconstriction reaction; assay: Action on immunoglobulin-G1 mediated bronchoconstriction reaction in guinea pigs; type: in vivo, Hartley guinea pigs; conditions: Cavia porcellus; 20 mg/kg oral, 1 hour before antigen
Procedure: Action on the Immunoglobulin-G1 Mediated Bronchoconstriction Reaction in Guinea Pigs
In accordance with the method of Orange and Moore (Orange, R. P. and Moore E. G. , J. Immunol., 116, 392-397, 1976), female and male Hartley guinea pigs weighing about 350 g were sensitized by intraperitoneal application of an emulsion (1 ml) composed of egg albumin (1 mg) and Freund's complete adjuvant (produced by Wako Pure-Chemical Industries, Ltd. of Japan). 3 Weeks after the sensitization, a serum antibody level in the sensitized guinea pigs was measured by means of the 3-hours passive cutaneous anaphylaxis (PCA) reaction in guinea pigs. […] The broncoconstriction reaction resulting from the antigen-antibody reaction was measured in accordance with the Konzett-Rossler method (Konzett, H. and Rossler, R., Naunyn-Schmiedeberg'ss Arch. exp. Path. pharmak., 195, 71-74, 1940). The guinea pigs were fixed on the dorsal position under anesthesia with a urethane (1.5 g/kg given intraperitonealy). An incision was made through the trachea, which was connected to an artificial respirator (manufactured by Harvard Co.) through an endotracheal tube, with a side tube of the endotracheal tube being attached to a brochoconstricting transducer (type 7020, manufactured by Ugobasile Co.). While an air volume per ventilation was adjusted to 5 to 7 ml and an air ventilation rate was controlled at 70 times/min., with a load pressure to the lung set at 10 cm H2 O, the overflown air volume was recorded on Rectigraphy-8S (manufactured by Sanei Sokki Inc. of Japan) through a transducer. After 1 mg/kg of gallamine triethiodide was given intravenously to the animals, 1 mg/kg of antigen, egg albumin dissolved in physiological saline, was applied intravenously to induce a brochoconstriction reaction. The bronchconstriction reaction was recorded for the period of time of 15 minutes. A drug was suspended in 5% gum arabic solution, and given orally 1 hour before the application of the antigen. Percent inhibition of the immunoglobuin G1 mediated bronchoconstriction reaction in guinea pigs are shown below in Table 3.

[2] = test system: Fe^3+ -NTA-induced injury of rat kidney; assay: Inhibitory effect on Fe3+-NTA-induced injury of rat kidney; type: in vivo, Wistar rats; conditions: 20 mg/kg oral once a day; for body weight gain: control 9.8 ± 5.4, normal 68.3 ± 2.3; for Urinary volume: control 20, normal 6.8; for Urinary protein: control 25.1, normal 5.1
Procedure: Ferric Nitrilotriacetate (Fe^3+ -NTA)-Induced Injury of Rat Kidney
Male Wistar rats of 4 weeks old weighing about 80 g were used. Injury of kidney was induced by the method of Awai et al. [Amer. J. Pathol., 95, 663-674 (1979)]. The mixture of ferric nitrate and NTA as a ratio of 1:4 was intraperitoneally given: iron of 5 mg/kg for 3 days followed 10 mg/kg for 9 days. Twelve days later, the animals were killed. Body weight gain, urinary volume, urinary protein and wet and dry weights of kidney were measured. Drugs were suspended in a 5% gum arabic solution and given orally once a day in a dose of 20 mg/kg.

[3] = test system: PAF-induced bronchoconstriction; assay: Effect on PAF-induced bronchoconstriction in guinea pigs; type: in vivo; conditions: one hour before PAF
Procedure: Platelet Activating Factor (PAF)-Induced Bronchoconstriction in Guinea Pigs
Experimental procedure in this experiment was the same as that in LTD4 -induced bronchoconstriction shown in Experimental example 7. PAF is an intraveneous dose of 1 μg/kg was used. Each specimen suspended in a 5% gum arabic solution was given orally one hour before the PAF administration.

[4] = test system: vascular permeability during early response of rat reversed passive Arthus pleurisy; assay: Effects on vascular permeability in rat reversed passive Arthus pleurisy; type: in vivo
Procedure: Effects on Increased Vascular Permeability and Slow Reacting Substance of Anaphylaxis (SRS-A) Generation in Rat Reversed Passive Arthus Pleurisy
The rat reversed passive Arthus pleurisy was induced by the method of Yamamoto et al. Agents Actions, 5, 374-377 (1975)]. Rats were given 1 ml of saline containing 5 mg of egg albumin intravenously followed 0.2 ml of rabbit anti-agg albumin antiserum injected into the pleural cavity. Just after that, 0.5 ml of saline contained 1% Evans blue was administered intravenously to the rats. 30 Minutes later, the animals were killed by bleeding, and the pleural cavity was rinsed with 2 ml of saline. The concentrations of the dye in the pleural exudate and the peripheral blood were measured to calculate the volume of serum infiltrated into the pleural cavity. The vascular permeability (dye concentration in pleural cavity/dye concentration in peripheral blood) was expressed as μl serum/30 min. On the other hand, the amount of SRS-A generated in the pleural cavity was determined by the following procedures. 30 Minutes after induction of the pleurisy, the aminals were killed by bleeding and the pleural cavity was rinsed with 2 ml of saline. 9 Milliliter of cold absolute ethanol were immediately added to the rinsed solution. The mixture was allowed to stand at 4° C. for 30 min. After the mixture was centrifuged at 3000 r.p.m. for 10 min, the supernatant was concentrated by evaporation. The resulting residue was dissolved in 0.5 ml of saline. The amount of SRS-A generated was bioassayed using guinea pig ileum.

[5] = test system: LTD4-induced bronchoconstriction; assay: Effect on LTD4-induced bronchoconstriction in guinea pigs; type: in vivo
Procedure: Effect on LTD4 -Induced Brochoconstriction in Guinea Pigs
Bronchoconstriction in guinea pigs was measured by the method of Konzett-Rossler[Naunyn-Schmiedeberg's Arch. exp. Path. Pharmak., 195, 71-74(1940)]. The animals were anesthetized with urethane (1.5 g/kg, intraperitoneally) and the trachea was cannulated. The animals were artificially ventilated by means of a respirator (Harvard apparatus rodent respirator) at a rate of 70 strokes/min and a constant volume of 5-7 ml. Inflation pressure was kept constantly at 10 cm H2 O. Changes in overflow of air from a side-arm of the cannula were recorded on Rectigraph-8S via a bronchospasm transducer for 15 min. LTD4 (10 μg/kg) was given into the […] through an indwelling cannula. Each specimen suspended in a 5% gum arabic solution was also given through the same cannula 1 or 24 hrs before the LTD4 administraction.

Row | SMILES | inhibition in vivo at 20 mg/kg [1] | Urinary protein (% inhibition) [2] | Urinary volume (% Inhibition) [2] | Water content in kidney (% Inhibition) [2] | body weight gain [2] | Urinary volume [2] | Urinary protein [2] | % Inhibition of PAF-induced bronchoconstriction ([3]; 0.313 mg/kg oral) | % Inhibition of PAF-induced bronchoconstriction ([3]; 1.25 mg/kg oral) | % Inhibition of PAF-induced bronchoconstriction ([3]; 5 mg/kg oral) | % Inhibition of vascular permeability ([4]; 0.1 mg/rat) | % Inhibition of vascular permeability ([4]; 1 mg/rat) | % Inhibition of LTD4-induced bronchoconstriction ([5]; 0.313 mg/kg, 1 hr. before LTD4) | % Inhibition of LTD4-induced bronchoconstriction ([5]; 1.25 mg/kg, 1 hr. before LTD4) | % Inhibition of LTD4-induced bronchoconstriction ([5]; 5 mg/kg, 1 hr. before LTD4) | % Inhibition of LTD4-induced bronchoconstriction ([5]; 5 mg/kg, 24 hrs. before LTD4) | % Inhibition of PAF-induced bronchoconstriction ([3]; 0.08 mg/kg oral)
1 | CC1=C(C)C(=O)C(C(CCCCCC(=O)O)c2ccccc2)=C(C)C1=O (centres unmarked) [Compound No. 50, 7-(3,5,6-trimethyl-1,4-benzoquinon-2-yl)-7-phenylheptanoic acid] | 76% | 88% | 88% | 81% | 39.3 ± 7.4 g | 8.4 mL/day | 7.5 mg/day | 66% | 94% | 85% | 21% | 47% | 58% | 77% | 94% | 72% | 
2 | CC1=C(C)C(=O)C(C(CCCCCC(=O)O)c2ccc(C)cc2)=C(C)C1=O (centres unmarked) [Compound No. 93] | 83% | 10% | 47% | 7% | 26.2 ± 4.9 g | 13.6 mL/day | 23.1 mg/day | 87% | 70% |  | 14% | 43% | 73% | 83% | 85% | 53% | 58%
